# Source: patent US20260158094A1, “COMPOSITION FOR PREVENTING, IMPROVING OR TREATING SKELETAL MUSCLE ATROPHY OR SARCOPENIA COMPRISING EXTRACT OR ISOLATED COMPOUND FROM STELLARIA DICHOTOMA AS ACTIVE INGREDIENT” (INDUSTRY-UNIVERSITY COOPERATION FOUNDATION HANYANG …, priority 2023, published 2026)
# Where “and” joins values, the source holds several entries; their conditions need not be identical. Identical values can stand only once. Marks after values point to notes of the source that are not given here.
# Tests used:
# [1] = system: C2C12 myotubes; experiment: Dexamethasone-induced atrophy of differentiated C2C12 myotubes, myotube diameter (ImageJ); format: cell-based, mouse; settings: for prevention of dexamethasone-induced reduction in diameter of C2C12 myotubes (in words): dexamethasone-induced atrophy
# Experimental: C2C12 mouse myoblasts used in this experiment were obtained from the American Type Culture Collection (ATCC). The cells were cultured in Dulbecco's Modified Eagle's Medium (DMEM) containing 10% fetal bovine serum (FBS), 100 U/mL penicillin, and 100 μg/mL streptomycin under conditions of 5% CO2 at 37° C. The C2C12 cells were seeded into 12-well plates and allowed to proliferate until reaching a confluence of 85-90%.
# For induction of differentiation, the culture medium was replaced with a differentiation medium composed of DMEM supplemented with 2% horse serum, 100 U/mL penicillin, and 100 μg/mL streptomycin. The medium was replaced every two days, and differentiation was carried out for a total of 6 days.
# The diameter of the C2C12 myotubes was measured using the ImageJ cell processing software. For each experimental group, the diameters of 50 individual myotubes were measured to calculate the average and standard error.
# [2] = system: C2C12 myotubes; experiment: In vitro starvation model (serum-free/low-glucose medium), C2C12 myotube diameter and MHC-stained area; format: cell-based, mouse
# Experimental: (§1) Culturing differentiated C2C12 myotubes in serum-free/low-glucose medium inhibits muscle protein synthesis and induces muscle atrophy through increased protein degradation. In this example, C2C12 myotubes differentiated as in Section 8-1 were cultured in serum-free/low-glucose medium to induce atrophy, and the cells were then treated with Dichotomine B under the following specific experimental conditions: • 1. Control group: Differentiated C2C12 myotubes were maintained in normal differentiation medium for 48 hours. • 2. Negative control group: Differentiated C2C12 myotubes were cultured in serum-free/low-glucose medium for 48 hours. • 3 Dichotomine B treatment groups: In the same condition as the negative control group, Dichotomine B was additionally administered at concentrations of 1 μM or 10 μM for 48 hours.
# This procedure was conducted in the same manner as described in Section 7-3.
# The diameter and staining area of the myotubes were measured as described in Example 3-3. The mean and standard errors were calculated, and the results were organized into Table 6. Each experiment was performed in triplicate.
# [3] = Body weight of mice with 48-hour fasting; format: in vivo, C57BL/6 male mice; settings: 10 mg/kg; for Body weight (g), End of Sample Administration: administered twice
# Experimental: (§2) C57BL/6 male mice (6 weeks old) were obtained from Koatech (Pyeongtaek, Gyeonggi-do, Korea) and acclimated for one week in the Hanyang University ERICA Laboratory Animal Center (Animal Facility Registration No. 445) before use in the experiments. The lighting cycle was set to 12 hours (07:00 to 19:00), and food and water were provided ad libitum. All animal experiments were conducted in compliance with the guidelines and regulations of the Institutional Animal Care and Use Committee (IACUC) of Hanyang University.
# (§3) After acquisition of the experimental animals and a 7-day acclimation period, the experiment was conducted.
# Solid feed for laboratory animals (Woojung Bio, Hwaseong, Gyeonggi-do, Korea) was provided, and all treatments were administered during a fixed time window (10:00 AM to 12:00 PM).
# (§4) Body weight was measured three times in total. For the fasting group, each animal was housed individually during the fasting period. The test sample was administered twice: once at the start of the fasting period, and again 24 hours later. Experimental results are presented as means±standard deviation (SD). Statistical significance among groups was analyzed using ANOVA t-tests via the StatView program.
# In the non-fasting group, body weight changes were within the normal range. However, in the fasting group (F group), a statistically significant reduction in body weight was observed after 48 hours of fasting (see Table 7).
# [4] = system: MHC, FOXO3a, Atrogin-1 and MuRF-1 in C2C12 myotubes; experiment: Western blotting in the C2C12 starvation model; format: cell-based, mouse; settings: western blot
# Experimental: as §1
# Western blotting was performed in the same manner as described in Example 7-5 to assess the expression levels of related proteins.
# [5] = system: C2C12 myotubes; experiment: Fusion index of MHC-positive multinucleated C2C12 myotubes after dexamethasone (MHC immunofluorescence); format: cell-based, mouse
# Experimental: The experiment was conducted similarly to Example 3-2. However, Dichotomine B was administered at concentrations of 10 μM and 30 μM.
# After completion of treatment, the culture media from each group was removed, and cells were washed twice with phosphate-buffered saline (PBS), fixed with 4% paraformaldehyde for 15 minutes, and washed three times with PBS. The cells were then permeabilized with 0.1% Triton X-100 for 10 minutes, washed twice with PBS, and blocked with 3% horse serum solution for 2 hours. Mouse anti-MHC antibody was diluted 1:100 in 3% BSA and incubated overnight at 4° C. The cells were washed three times with 0.1% PBST. Goat anti-mouse IgG-FITC secondary antibody (Thermo Fisher Scientific) was diluted 1:500 in 3% BSA and reacted for 1 hour at 37° C., followed by three washes with 0.1% PBST. Next, cells were stained with 1 μg/mL Hoechst 33342 solution for 10 minutes at room temperature. Cell imaging was performed using the JuLi™ system. MHC immunofluorescence was visualized in green, and cell nuclei stained with Hoechst 33342 were visualized in blue.
# From the results of Section 7-3, randomly selected multinucleated myotubes were analyzed to calculate the fusion index. The number of multinucleated myotubes (i.e., myotubes containing multiple nuclei) was counted and normalized to the total number of cells. The relative number of MHC-positive multinucleated myotubes was determined for each treatment group (see Table 4 and FIG. 13).
# [6] = system: C57BL/6 male mice; experiment: Grip strength of mice after 48-hour fasting (grip strength meter); format: in vivo; settings: fed mice, 10 mg/kg
# Experimental: as §2, §3, §4
# After the completion of the fasting period, grip strength was measured using a grip strength meter.
# [7] = system: MHC, Atrogin-1 and MuRF-1 in C2C12 myotubes; experiment: Western blotting of dexamethasone-treated C2C12 myotubes; format: cell-based, mouse; settings: dexamethasone model, western blot
# Experimental: C2C12 cells were seeded in a 6-well plate at a density of 1×10^5 cells per well. After differentiation was complete, each group was treated with dexamethasone and the test sample according to the respective experimental condition.
# Cells were lysed using a lysis buffer containing LIPA buffer, protease inhibitors, and phosphatase inhibitors. A volume of 200 μL of the prepared lysis buffer was added per well, and the cells were collected using a cell scraper. The lysates were centrifuged at 13,000 rpm for 20 minutes, and the supernatants were collected. Protein concentrations were measured using the BCA protein assay method. Equal amounts of protein were separated using 8% SDS-PAGE.
# The separated proteins were transferred to a nitrocellulose membrane, followed by blocking with 3% BSA buffer. The membranes were incubated with various primary antibodies (e.g., MHC, FoxO3a, MuRF1, GAPDH), followed by sequential washing, incubation with secondary antibodies, and further washing steps.
# Protein expression was detected using enhanced chemiluminescence (ECL), and images were acquired using the ChemiDoc imaging system. Quantification of each protein expression level was performed using ImageJ software.
# [8] = system: C57BL/6 male mice; experiment: Muscle tissue weights (TA, EDL, GA, SOL) of mice after 48-hour fasting; format: in vivo; settings: 10 mg/kg
# Experimental: as §2, §3, §4
# To evaluate muscle loss, the weights of dissected muscle tissues-including the tibialis anterior (TA), extensor digitorum longus (EDL), gastrocnemius (GA), and soleus (SOL)-were measured post-mortem and summarized in Table 9.
# [9] = Dex 10 μM + compound 30 μM, 24 hours
# [10] = starvation (serum free/low glucose medium) 48 hours + compound 1 μM
# [11] = starvation (serum free/low glucose medium) 48 hours + compound 10 μM
# [12] = fed mice (Feed + Dichotomine B)
compound,measurement,setting,value
Shaftoside,C2C12 myotube diameter (% of control),[1]; [9],92.7^c % of control
same,prevention of dexamethasone-induced reduction in diameter of C2C12 myotubes (in words),[1],effectively prevented
"C[C@H](O)c1nc(C(=O)O)cc2c1[nH]c1ccccc12 [Dichotominee A, Dichotomine A]",C2C12 myotube diameter (% of control),[1]; [9],87.9 % of control
O=c1cc(-c2ccc(O)cc2)oc2c([C@@H]3O[C@H](CO)[C@@H](O)[C@H](O)[C@H]3O)c(O)c([C@@H]3OC[C@H](O)[C@H](O)[C@H]3O)c(O)c12 [Isoshaftoside],C2C12 myotube diameter (% of control),[1]; [9],95.7^c % of control
same,prevention of dexamethasone-induced reduction in diameter of C2C12 myotubes (in words),[1],effectively prevented
O=C(O)c1cc2c([nH]c3ccccc32)c([C@@H](O)CO)n1 [Dichotomine B],C2C12 myotube diameter (% of control),[2]; [10],98.6 + 9.3^b % of control
same,MHC positive area (% of control),[2]; [10],93.6 + 7.8^b % of control
same,C2C12 myotube diameter (% of control),[2]; [11],100.4 ± 10.8^b % of control
same,MHC positive area (% of control),[2]; [11],97.1 ± 8.4^b % of control
same,"Body weight (g), Start of Sample Administration",[3]; [12],21.080 ± 0.370 g
same,"Body weight (g), End of Sample Administration",[3]; [12],21.400 ± 0.339 g
same,effect on body weight (in words),"[3]; mice, 48-hour fasting",no significant effect on body weight
same,"Body weight (g), Start of Sample Administration",[3]; starved mice (Starvation + Dichotomine B),22.214 ± 0.701 g
same,"Body weight (g), End of Sample Administration","[3]; starved mice, 48-hour fasting",17.743 ± 0.885 g
same,"effect on starvation-induced changes of MHC, FOXO3a, Atrogin-1 and MuRF-1 expression",[4],effectively reversed these effects
same,fusion index of MHC-positive multinucleated C2C12 myotubes (% of control),[5]; Dex 10 μM + compound 10 μM,90.3^b % of control
same,fusion index of MHC-positive multinucleated C2C12 myotubes (% of control),[5]; Dex 10 μM + compound 30 μM,92.3^b % of control
same,fusion index of multinucleated C2C12 myotubes (in words),[5]; dexamethasone model,significantly improved the fusion index
same,C2C12 myotube diameter (% of control),"[1]; Dex 10 μM + compound 10 μM, 24 hours",97.9^b % of control
same,C2C12 myotube diameter (% of control),[1]; [9],98.2^b % of control and 100.6^b % of control
same,prevention of dexamethasone-induced reduction in diameter of C2C12 myotubes (in words),[1],effectively prevented
same,Grip Strength (gf),[6],190 ± 11.7 gf
same,MHC expression,[7],increased in a concentration-dependent manner
same,expression of Atrogin-1 and MuRF-1,[7],reduced
same,Extensor Digitorum Longus (EDL) weight,[8]; fed mice,0.012 ± 0.002 g
same,Gastrocnemius (GA) weight,[8]; fed mice,0.169 ± 0.014 g
same,Soleus (SOL) weight,[8]; fed mice,0.010 ± 0.001 g
same,Tibialis Anterior (TA) weight,[8]; fed mice,0.058 ± 0.006 g
same,Extensor Digitorum Longus (EDL) weight,"[8]; starved mice, 48-hour fasting",0.014 ± 0.004 g
same,Gastrocnemius (GA) weight,"[8]; starved mice, 48-hour fasting",0.165 ± 0015 g
"C[C@@H]1C[C@H]2[C@@H]3CCC4=CC(=O)C=C[C@]4(C)[C@@]3(F)[C@@H](O)C[C@]2(C)[C@@]1(O)C(=O)CO [Dex, Dexamethasone, reference compound]",fusion index of MHC-positive multinucleated C2C12 myotubes (% of control),[5]; Dex 10 μM alone,80.0^a % of control
same,C2C12 myotube diameter (% of control),"[1]; dexamethasone 10 μM alone, 24 hours (negative control group)",79.9^a % of control
same,decrease of C2C12 myotube diameter compared to the control group,[1]; dexamethasone 10 μM vs differentiation medium alone,21.1%
Glucodichotomine B,C2C12 myotube diameter (% of control),[1]; [9],102.0^b % of control
same,prevention of dexamethasone-induced reduction in diameter of C2C12 myotubes (in words),[1],effectively prevented
